The source of these data is patent publication US7863449B2, “Modulators of muscarinic receptors” (Vertex Pharmaceuticals Incorporated, priority 2004, dated 2011).

Where a name gives a salt, the structure may show the parent alone.

In experiment [1] the target is T1, M1 muscarinic receptor (Homo sapiens, UniProt P11229).
T1 construct: expressed in transfected cells; host or cells: CHO (M1-CHO)
T1 sequence (P11229 1-460): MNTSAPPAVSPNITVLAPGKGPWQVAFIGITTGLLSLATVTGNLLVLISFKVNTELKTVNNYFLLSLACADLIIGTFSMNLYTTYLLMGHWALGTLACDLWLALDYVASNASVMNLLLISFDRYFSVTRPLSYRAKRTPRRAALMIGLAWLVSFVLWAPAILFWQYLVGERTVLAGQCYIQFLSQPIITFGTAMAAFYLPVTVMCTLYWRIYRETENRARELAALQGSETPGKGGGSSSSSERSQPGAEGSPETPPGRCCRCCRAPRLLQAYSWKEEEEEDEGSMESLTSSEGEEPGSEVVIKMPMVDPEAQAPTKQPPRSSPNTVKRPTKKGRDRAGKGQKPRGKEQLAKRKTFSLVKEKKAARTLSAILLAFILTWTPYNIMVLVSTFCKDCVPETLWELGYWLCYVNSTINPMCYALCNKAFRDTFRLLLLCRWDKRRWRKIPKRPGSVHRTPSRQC
As to the kind of experiment: Functional mobilization of intracellular calcium (FLIPR), M1-CHO cells. To be noted: for Emax: 100% efficacy is the maximum response obtained using Carbachol as a control; for M1 Activity: M1-CHO cells, FLIPR calcium mobilization. The format is cell-based. In outline: (§1)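 CHO cells expressing M1 or M4, loaded with Fluo-3 AM or Calcium 3 dye with 1 mM probenecid, 0.5% DMSO final. Agonist mode: compound added directly; antagonist mode: 15 min pre-incubation (or co-application) before carbachol at EC80. Fluorescence recorded 60 s on FLIPR.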
(Calcium flux is commonly read through the fluorescence of an indicator in the cells.)

The target of experiment [2] is T2, M4 muscarinic receptor (Homo sapiens, UniProt P08173).
T2 construct: expressed in transfected cells; host or cells: CHO (M4-CHO)
T2 sequence (P08173 1-479): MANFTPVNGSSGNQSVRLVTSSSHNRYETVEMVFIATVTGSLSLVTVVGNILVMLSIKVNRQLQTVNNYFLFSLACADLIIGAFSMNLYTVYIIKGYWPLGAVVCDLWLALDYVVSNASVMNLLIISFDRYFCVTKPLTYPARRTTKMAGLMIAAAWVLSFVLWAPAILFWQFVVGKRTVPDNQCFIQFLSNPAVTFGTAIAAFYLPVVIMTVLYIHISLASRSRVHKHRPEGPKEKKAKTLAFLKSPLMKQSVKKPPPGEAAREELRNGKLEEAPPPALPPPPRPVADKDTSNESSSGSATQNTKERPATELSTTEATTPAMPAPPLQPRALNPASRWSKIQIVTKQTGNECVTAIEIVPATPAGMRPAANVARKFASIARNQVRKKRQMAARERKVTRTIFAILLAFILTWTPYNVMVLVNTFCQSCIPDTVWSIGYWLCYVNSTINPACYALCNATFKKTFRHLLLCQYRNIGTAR
As to the kind of experiment: Functional mobilization of intracellular calcium (FLIPR), M4-CHO cells. Type of experiment: cell-based. The conditions noted are these: for Emax: 100% efficacy is the maximum response obtained using Carbachol as a control; for M4 Activity: M4-CHO cells, FLIPR calcium mobilization. Put shortly: as §1

Broadly, the Emax is the maximal effect, on the per cent scale that the assay sets. On to `CCOC(=O)N1CCC(CN2CCC3(CC2)CN(C(=O)OC)Cc2ccccc23)CC1` [compound 128], for which, in experiment [1], the Emax was in the range of 25 to 100% and the “M1 Activity” value is “+++ (activity was measured to be less than 1.0 μM)”. Besides, in experiment [2], the Emax was in the range of 25 to 100% and the “M4 Activity” value was “+++ (activity was measured to be less than 1.0 μM)”.

As for `CCCOC(=O)N1CCC(N2CCC3(CC2)CN(C(C)=O)Cc2ccccc23)CC1` [compound 129, Propyl 4-(2-acetyl-2,3-dihydro-1H-spiro[isoquinoline-4,4′-piperidine]-1′-yl)piperidine-1-carboxylate hydrochloride], in experiment [1], the maximum response (Emax) was 25 to 100% and the “M1 Activity” value is on record as “+++ (activity was measured to be less than 1.0 μM)”. Also, in experiment [2], the Emax fell in the range of 25 to 100% and the “M4 Activity” value was “+++ (activity was measured to be less than 1.0 μM)”.

As to `CC(C)(C)CCN1CCC2(CC1)c1ccccc1C(=O)N2Cc1ccccc1` [compound 130], in experiment [1], the Emax fell in the range of 25 to 100% and the “M1 Activity” value was “++ (activity was measured to be from 1.0 μM to 5.0 μM)”. In addition, in experiment [2], the maximum response (Emax) was less than 25% and the “M4 Activity” value is on record as “+ (activity was measured to be greater than 5.0 μM)”.

`CN(C)S(=O)(=O)N1Cc2ccccc2C2(CCN(C3CC4CCC(C3)N4C(=O)OC3CCC3)CC2)C1` (centres unmarked) [compound 131]: in experiment [1], the maximal response (Emax) lay within 25 to 100% and the “M1 Activity” value is recorded as “+++ (activity was measured to be less than 1.0 μM)”. In experiment [2], the maximum response (Emax) lay in the range of 25 to 100% and the “M4 Activity” value was “+++ (activity was measured to be less than 1.0 μM)”.

In the case of `CCOC(=O)N1C2CCC1CC(N1CCC3(CC1)CN(C(=O)Nc1ccc(F)cc1)Cc1ccccc13)C2` (centres unmarked) [compound 132], in experiment [1], the Emax was in the range of 25 to 100% and the “M1 Activity” value is recorded as “+++ (activity was measured to be less than 1.0 μM)”. Further, in experiment [2], the maximum response (Emax) was in the range of 25 to 100% and the “M4 Activity” value is reported as “+++ (activity was measured to be less than 1.0 μM)”.

As to `COC(=O)N1CCC(N2CCC3(CC2)CN(C(C)=O)Cc2ccccc23)CC1` [compound 133], in experiment [1], the Emax is 25 to 100% and the “M1 Activity” value was “+++ (activity was measured to be less than 1.0 μM)”. Also, in experiment [2], the Emax is 25 to 100% and the “M4 Activity” value is recorded as “+++ (activity was measured to be less than 1.0 μM)”.

Turning to `O=C1NC2(CCN(CCC3CCSCC3)CC2)c2ccccc21` [compound 134], in experiment [1], the maximal effect (Emax) was less than 25% and the “M1 Activity” value was “+ (activity was measured to be greater than 5.0 μM)”. Also, in experiment [2], the Emax is less than 25% and the “M4 Activity” value is given as “+ (activity was measured to be greater than 5.0 μM)”.

Regarding `CCOC(=O)N1C2CCC1CC(N1CCC3(CC1)CN(c1cccc(Cl)c1)Cc1ccccc13)C2` (centres unmarked) [compound 136], in experiment [1], the Emax is more than 100% and the “M1 Activity” value was “+++ (activity was measured to be less than 1.0 μM)”. Moreover, in experiment [2], the Emax was 25 to 100% and the “M4 Activity” value is recorded as “+++ (activity was measured to be less than 1.0 μM)”.

Take `CCOc1ccc(CN2CCC3(CC2)CN(C(C)=O)Cc2ccccc23)cc1` [compound 137]: in experiment [1], the maximal response (Emax) was less than 25% and the “M1 Activity” value is “+ (activity was measured to be greater than 5.0 μM)”. In experiment [2], the Emax was less than 25% and the “M4 Activity” value is on record as “+ (activity was measured to be greater than 5.0 μM)”.

With `COCCOC(=O)N1Cc2ccccc2C2(CCN(C3CC4CCC(C3)N4C(=O)O[C@@H]3CCOC3)CC2)C1` (some centres unmarked) [compound 138], in experiment [1], the maximum response (Emax) was 25 to 100% and the “M1 Activity” value is “+++ (activity was measured to be less than 1.0 μM)”. In experiment [2], the maximum response (Emax) was 25 to 100% and the “M4 Activity” value is listed as “+++ (activity was measured to be less than 1.0 μM)”.

Consider `CC(=O)N1Cc2ccccc2C2(CCN(Cc3ccoc3)CC2)C1` [compound 139], for which, in experiment [1], the Emax is less than 25% and the “M1 Activity” value is reported as “+ (activity was measured to be greater than 5.0 μM)”. In experiment [2], the Emax was less than 25% and the “M4 Activity” value is reported as “+ (activity was measured to be greater than 5.0 μM)”.

Regarding `COC(=O)N1C2CCC1CC(N1CCC3(CC1)CN(C(C)=O)Cc1ccccc13)C2` (centres unmarked) [compound 140], in experiment [1], the Emax lay in the range of 25 to 100% and the “M1 Activity” value was “+++ (activity was measured to be less than 1.0 μM)”. Also, in experiment [2], the Emax was in the range of 25 to 100% and the “M4 Activity” value is listed as “+++ (activity was measured to be less than 1.0 μM)”.

Turning to `CCOC(=O)N1C2CCC1CC(N1CCC3(CC1)CN(c1cccc(OC)c1)Cc1ccccc13)C2` (centres unmarked) [compound 141, ethyl 3-(2-(3-methoxyphenyl)-2,3-dihydro-1H-spiro[isoquinoline-4,4′-piperidine]-1′-yl)-8-azabicyclo[3.2.1]octane-8-carboxylate], in experiment [1], the maximal response (Emax) lay in the range of 25 to 100% and the “M1 Activity” value is reported as “+++ (activity was measured to be less than 1.0 μM)”. Besides, in experiment [2], the maximum response (Emax) is 25 to 100% and the “M4 Activity” value is given as “+++ (activity was measured to be less than 1.0 μM)”.

Turning to `CC(=O)N1Cc2ccccc2C2(CCN(Cc3sccc3C)CC2)C1` [compound 142], in experiment [1], the maximal effect (Emax) is less than 25% and the “M1 Activity” value is listed as “+ (activity was measured to be greater than 5.0 μM)”. Also, in experiment [2], the Emax was less than 25% and the “M4 Activity” value is on record as “+ (activity was measured to be greater than 5.0 μM)”.

Take `CCOC(=O)N1CCC(CN2CCC3(CC2)CN(C(=O)c2snnc2C)Cc2ccccc23)CC1` [compound 143]: in experiment [1], the Emax lay in the range of 25 to 100% and the “M1 Activity” value is recorded as “+++ (activity was measured to be less than 1.0 μM)”. Besides, in experiment [2], the Emax fell in the range of 25 to 100% and the “M4 Activity” value is recorded as “+++ (activity was measured to be less than 1.0 μM)”.

As for `CC(=O)c1ccc(CN2CCC3(CC2)CN(C(C)=O)Cc2ccccc23)cc1` [compound 144], in experiment [1], the Emax lay within 25 to 100% and the “M1 Activity” value was “+ (activity was measured to be greater than 5.0 μM)”. Further, in experiment [2], the Emax was less than 25% and the “M4 Activity” value was “+ (activity was measured to be greater than 5.0 μM)”.

Take `CCOC(=O)N1CCC(CN2CCC3(CC2)OC(=O)c2ccc(C)cc23)CC1` [compound 145]: in experiment [1], the Emax lay within 25 to 100% and the “M1 Activity” value is given as “+++ (activity was measured to be less than 1.0 μM)”. Further, in experiment [2], the Emax was in the range of 25 to 100% and the “M4 Activity” value is given as “+++ (activity was measured to be less than 1.0 μM)”.

For the compound `CCOC(=O)N1C2CCC1CC(N1CCC3(CC1)CN(C(=O)c1cccs1)Cc1ccccc13)C2` (centres unmarked) [compound 146], in experiment [1], the maximum response (Emax) was in the range of 25 to 100% and the “M1 Activity” value is reported as “+++ (activity was measured to be less than 1.0 μM)”. Besides, in experiment [2], the maximum response (Emax) was 25 to 100% and the “M4 Activity” value is “+++ (activity was measured to be less than 1.0 μM)”.

Take `CCOC(=O)N1CCC(CN2CCC3(CC2)CN(C(=O)c2ccccc2)Cc2ccccc23)CC1` [compound 147, Ethyl 4-((2-benzoyl-2,3-dihydro-1H-spiro[isoquinoline-4,4′-piperidine]-1′-yl)methyl)piperidine-1-carboxylate hydrochloride]: in experiment [1], the Emax lay within 25 to 100% and the “M1 Activity” value is recorded as “+++ (activity was measured to be less than 1.0 μM)”. In experiment [2], the Emax lay in the range of 25 to 100% and the “M4 Activity” value is “+++ (activity was measured to be less than 1.0 μM)”.

Turning to `CCCCOC(=O)N1Cc2ccccc2C2(CCN(C3CC4CCC(C3)N4C(=O)OCC)CC2)C1` (centres unmarked) [compound 148], in experiment [1], the Emax lay within 25 to 100% and the “M1 Activity” value is recorded as “+++ (activity was measured to be less than 1.0 μM)”. Besides, in experiment [2], the Emax lay within 25 to 100% and the “M4 Activity” value is given as “+++ (activity was measured to be less than 1.0 μM)”.
